In patent publication US9890175B2, “Taxane compound, and preparation method and use thereof” (JIANGSU TASLY DIYI PHARMACEUTICAL CO., LTD., priority 2013, dated 2018):
Like-named read-outs stand apart in the source and are kept apart here.

Legend:
[1] = Caco-2 bidirectional transport, efflux ratio; conditions: human, Caco-2
Excerpt: (§3) Human-derived colorectal adenocarcinoma cell line Caco-2 cell monolayer model was used to study the bidirectional transport of the target compounds from the apical (AP) side to the basolateral (BL) side and from BL side to AP side. HPLC was used for quantitative analysis to calculate transport parameters, apparent permeability coefficient (Papp) and the efflux ratio.

BGC-823 gastric cancer = test: MTT proliferation inhibition, BGC-823; type: cell-based; conditions: Homo sapiens, BGC-823, read-out: Proliferation inhibition rate, BGC-823 Gastric cancer
Excerpt: (§1) 1. Cytotoxicity Assay Using Human Tumor Cell Lines
(§2) Paclitaxel was used as the positive drug.

HL-60 leukemia = test: MTT proliferation inhibition, HL-60; type: cell-based; conditions: Homo sapiens, HL-60, read-out: Proliferation inhibition rate, HL60 Leukemia
Excerpt: as §1, §2

[2] = tested on: MDA-MB-436 breast cancer cells; test: MTT proliferation inhibition, MDA-MB-436; type: cell-based; conditions: Homo sapiens, MDA-MB-436, read-out: Proliferation inhibition rate, MDA-MB-436 Breast cancer
Excerpt: as §1, §2

Hela cervical cancer = test: MTT proliferation inhibition, HeLa; type: cell-based; conditions: Homo sapiens, read-out: Proliferation inhibition rate, HeLa Uterin cancer
Excerpt: as §1, §2

LN-18 = test: MTT proliferation inhibition, LN-18; type: cell-based; conditions: Homo sapiens, LN-18, read-out: Proliferation inhibition rate, LN-18 Gastric canser
Excerpt: as §1, §2

A2780 ovarian cancer = test: MTT proliferation inhibition, A2780; type: cell-based; conditions: Homo sapiens, A2780, read-out: Proliferation inhibition rate, A2780 Ovarian cancer
Excerpt: as §1, §2

HCT 116 colon cancer = test: MTT proliferation inhibition, HCT 116; type: cell-based; conditions: Homo sapiens, HCT-116, read-out: Proliferation inhibition rate, HCT 116 Colon cancer
Excerpt: as §1, §2

A375 melanoma = test: MTT proliferation inhibition, A375; type: cell-based; conditions: Homo sapiens, A-375, read-out: Proliferation inhibition rate, A375 Melanoma
Excerpt: as §1, §2

K562 leukemia = test: MTT proliferation inhibition, K562; type: cell-based; conditions: Homo sapiens, K562, read-out: Proliferation inhibition rate, K562 Leukemia
Excerpt: as §1, §2

LNCaP prostate cancer = test: MTT proliferation inhibition, LNCaP; type: cell-based; conditions: Homo sapiens, read-out: Proliferation inhibition rate, LNCaP Prostate cancer
Excerpt: as §1, §2

[3] = tested on: MCF-7 breast cancer cells; test: MTT proliferation inhibition, MCF-7; type: cell-based; conditions: Homo sapiens, MCF7, read-out: Proliferation inhibition rate, MCF-7 Breast cancer
Excerpt: as §1, §2

Du145 prostate cancer = test: MTT proliferation inhibition, Du145; type: cell-based; conditions: Homo sapiens, DU-145, read-out: Proliferation inhibition rate, DU145 Prostate cancer
Excerpt: as §1, §2

B16 melanoma = test: MTT proliferation inhibition, B16; type: cell-based; conditions: B16, read-out: Proliferation inhibition rate, B16 Melanoma
Excerpt: as §1, §2

[4] = Caco-2 cell monolayer membrane transport assay (Papp and recovery); type: in vitro ADME; conditions: human, Caco-2, Caco-2, A-B
Excerpt: Caco-2 Cell Monolayer Membrane Transport Assay
as §3

[5] = tested on: NCI-H460 non-small cell lung cancer; test: MTT proliferation inhibition, NCI-H460; type: cell-based; conditions: Homo sapiens, NCI-H460, read-out: Proliferation inhibition rate, NCI-H460 Non-small cell lung cancer
Excerpt: as §1, §2

[6] = tested on: breast cancer cell line MCF-7; test: IC50 on breast cancer cell line MCF-7; type: cell-based; conditions: Homo sapiens, MCF7, 72 h, read-out: MCF-7 (IC50, nM)
Protocol: From the activity evaluation data of the above-mentioned preliminary screen, it can be seen that the series of taxanes derivatives synthesized in the present invention have activity. Afterward, the compounds are investigated to examine their IC50 values on breast cancer cell line MCF-7. […] Experiments for each compound were independently repeated for three times and multiple holes were used in each experiment. The exposure time of drugs was 72 hours.

[7] = tested on: A549 non-small cell lung cancer; test: MTT proliferation inhibition, A549; type: cell-based; conditions: Homo sapiens, A549, read-out: Proliferation inhibition rate, A549 Non-small cell lung cancer
Excerpt: as §1, §2

HT-29 colon cancer = test: MTT proliferation inhibition, HT-29; type: cell-based; conditions: Homo sapiens, HT-29, read-out: Proliferation inhibition rate, HT29 Colon cancer
Excerpt: as §1, §2

[8] = Mean, read-out: Recovery rate in mass, Mean
[9] = Sample-01, read-out: Papp A-B, Sample-01
[10] = Sample-01, read-out: Recovery rate in mass, Sample-01
[11] = Sample-02, read-out: Papp A-B, Sample-02
[12] = Sample-02, read-out: Recovery rate in mass, Sample-02

Row | SMILES | Papp A→B [1] [×10⁻⁶ cm/s] | Papp B→A [1] [×10⁻⁶ cm/s] | efflux ratio [1] | inhibition at 1 µM (BGC-823 gastric cancer) [%] | inhibition at 1 µM (HL-60 leukemia) [%] | inhibition at 1 µM [2] [%] | inhibition at 1 µM (Hela cervical cancer) [%] | inhibition at 1 µM (LN-18) [%] | inhibition at 1 µM (A2780 ovarian cancer) [%] | inhibition at 1 µM (HCT 116 colon cancer) [%] | inhibition at 1 µM (A375 melanoma) [%] | inhibition at 1 µM (K562 leukemia) [%] | inhibition at 1 µM (LNCaP prostate cancer) [%] | inhibition at 1 µM [3] [%] | inhibition at 1 µM (Du145 prostate cancer) [%] | inhibition at 1 µM (B16 melanoma) [%] | recovery [4, 8] [%] | Papp A→B [4, 9] [×10⁻⁶ cm/s] | recovery [4, 10] [%] | Papp A→B [4, 11] [×10⁻⁶ cm/s] | other results
1 | COC(=O)O[C@H]1C[C@H]2OC[C@@]2(OC(C)=O)[C@H]2[C@H](OC(=O)c3ccccc3)[C@]34OC(=O)O[C@H]3[C@H](OC(=O)[C@H](O)[C@@H](NC(=O)N(C)C)c3ccccc3)C(C)=C([C@@H](OC)C(=O)[C@]12C)C4(C)C [PCMI-19] | 2.79 | 21.3 | 7.65 | 93.3 | 96.9 | 83.6 | 99.6 | 93.9 | 94.2 | 67.3 | 95.2 | 92.7 | 87.2 | 89.7 | 90 | 83.7 | 74.5 | 3.78 | 78.2 | 4.05 | Papp A→B ([4]; Mean, read-out: Papp A-B, Mean): 3.92 ×10⁻⁶ cm/s; recovery [4, 12]: 70.7%; inhibition at 1 µM [5]: 87.3%; IC50 [6]: 6.58 ± 0.02 nM; inhibition at 1 µM [7]: 80.2%; inhibition at 1 µM (HT-29 colon cancer): 87.2%
2 | CO[C@H]1C[C@H]2OC[C@@]2(OC(C)=O)[C@H]2[C@H](OC(=O)c3ccccc3)[C@]34OC(=O)O[C@H]3[C@H](OC(=O)[C@H](O)[C@@H](NC(=O)OC(C)(C)C)c3ccccn3)C(C)=C([C@@H](OC(=O)N(C)C)C(=O)[C@]12C)C4(C)C [PCMI-09] | 3.56 | 29 | 8.14 | 94.9 | 98.5 | 81.3 | 101 | 95 | 95.6 | 65.5 | 96.9 | 92.6 | 86.2 | 89.8 | 90.3 | 81.7 | 76.5 | 5.78 | 70.4 | 3.59 | recovery [4, 12]: 82.6%; inhibition at 1 µM [5]: 85.8%; IC50 [6]: 14.31 ± 0.12 nM; inhibition at 1 µM [7]: 75.8%; inhibition at 1 µM (HT-29 colon cancer): 87.8%
3 | CO[C@H]1C(=O)[C@]2(C)[C@@H](OC)C[C@H]3OC[C@@]3(OC(C)=O)[C@H]2[C@H](OC(=O)c2ccccc2)[C@]23OC(=O)O[C@H]2[C@H](OC(=O)[C@H](O)[C@@H](NC(=O)N(C)C)c2ccccc2)C(C)=C1C3(C)C [PCMI-03] | 2.97 | 28.6 | 9.62 | 92.3 | 95.7 | 80.1 | 99.4 | 95.3 | 95.1 | 58.3 | 88.6 | 93.6 | 82.6 | 95.3 | 85 | 78.2 | 61.7 | 3.45 | 65.1 | 3.89 | Papp A→B ([4]; Mean, read-out: Papp A-B, Mean): 3.67 ×10⁻⁶ cm/s; recovery [4, 12]: 58.2%; inhibition at 1 µM [5]: 85.3%; IC50 [6]: 2.89 ± 0.1 nM; inhibition at 1 µM [7]: 68.6%; inhibition at 1 µM (HT-29 colon cancer): 88.5%
4 | COC(=O)O[C@H]1C[C@H]2OC[C@@]2(OC(C)=O)[C@H]2[C@H](OC(=O)c3ccccc3)[C@]34OC(=O)O[C@H]3[C@H](OC(=O)[C@H](O)[C@@H](NC(=O)OC(C)(C)C)c3ccccc3)C(C)=C([C@@H](OC)C(=O)[C@]12C)C4(C)C [PCMI-17] | 2.4 | 5.74 | 2.39 | 95.1 | 97.3 | 85.1 | 101 | 95.9 | 96.6 | 69.6 | 94.9 | 96.5 | 86.7 | 93.1 | 90.7 | 82.3 | 88.7 | 4.7 | 104 | 3.16 | recovery [4, 12]: 73.9%; inhibition at 1 µM [5]: 89.2%; IC50 [6]: 3.84 ± 0.08 nM; inhibition at 1 µM [7]: 80.3%; inhibition at 1 µM (HT-29 colon cancer): 88.5%
5 | CO[C@H]1C(=O)[C@]2(C)[C@@H](OC(=O)N(C)C)C[C@H]3OC[C@@]3(OC(C)=O)[C@H]2[C@H](OC(=O)c2ccccc2)[C@]23OC(=O)O[C@H]2[C@H](OC(=O)[C@H](O)[C@@H](NC(=O)OC(C)(C)C)c2ccccc2)C(C)=C1C3(C)C [PCMI-14] | 1.98 | 19 | 9.58 | 95.8 | 97.5 | 80.2 | 99.9 | 93.5 | 94.2 | 65.5 | 95.3 | 92.7 | 85.3 | 88.5 | 89.8 | 80.3 | 91.3 | 3.21 | 95 | 2.87 | Papp A→B ([4]; Mean, read-out: Papp A-B, Mean): 3.04 ×10⁻⁶ cm/s; recovery [4, 12]: 87.6%; inhibition at 1 µM [5]: 86.9%; IC50 [6]: 15.4 ± 0.16 nM; inhibition at 1 µM [7]: 76.2%; inhibition at 1 µM (HT-29 colon cancer): 87.3%
